This passage reports IC50 results from US9518065B2, “IRAK inhibitors and uses thereof” (NIMBUS IRIS, INC., priority 2013, dated 2016).

Assay [1] deals with TNFα and IL8 production in THP-1 cells. As to the kind of experiment: LPS induced cytokine (TNFα and IL8) production assay in THP-1 cells. The assay is classed as cell-based. To be noted: 300 ng/mL LPS. On the procedure:
Provided compounds were also assayed in an LPS (Lipopolysacharide) or R848 (TLR-7 agonist) induced cytokine (TNFα and IL8) production assay in THP-1 cells, human white blood cells (hWBC), and whole blood. The exemplary protocol for this assay in THP-1 cells was as follows below.
THP-1 cells from ATCC (TIB-202) were cultured in RPMI Medium 1640 (Invitrogen, Cat No. A10491-01), 10% fetal bovine serum (Invitrogen, Cat No. 10099141, Lot No. 8172882) containing 100 U/mL Penicillin, 100 μg/mL streptomycin (Invitrogen, Cat No. 15140-122), and 50 uM 2-Mercaptoethanol (Invitrogen, Cat No. 21985023). LPS-EK ultra pure (Invivogen, Cat No. tlrl-peklps) was used to induce IL8 and TNFα production, that was detected in the cell culture supernatant by IL8 HTRF kit (Cisbio, Cat No. 62IL8PEB) and TNFα HTRF kit (Cisbio, Cat No. 62TNFPEB), as per manufacturer instructions. Cells were cultured in 96 well assay plates at 100,000 cells per well, and compounds diluted in final 0.3% DMSO were pre-incubated with cells for 1 hour prior to stimulation with 300 ng/mL LPS. Cytokine production in cell supernatant was measured at 5 hours for TNFα and IL8 production, and for 16 hours for IL8 production and assessment of cell viability.
The compound numbers correspond to the compound numbers in Table 1. […] “NA” stands for “not assayed.”

The next assay concerns the target T1, IRAK4 (Homo sapiens, UniProt Q9NWZ3).
T1 construct: purchased CARNA Bioscience 09-145
T1 sequence (Q9NWZ3 1-460): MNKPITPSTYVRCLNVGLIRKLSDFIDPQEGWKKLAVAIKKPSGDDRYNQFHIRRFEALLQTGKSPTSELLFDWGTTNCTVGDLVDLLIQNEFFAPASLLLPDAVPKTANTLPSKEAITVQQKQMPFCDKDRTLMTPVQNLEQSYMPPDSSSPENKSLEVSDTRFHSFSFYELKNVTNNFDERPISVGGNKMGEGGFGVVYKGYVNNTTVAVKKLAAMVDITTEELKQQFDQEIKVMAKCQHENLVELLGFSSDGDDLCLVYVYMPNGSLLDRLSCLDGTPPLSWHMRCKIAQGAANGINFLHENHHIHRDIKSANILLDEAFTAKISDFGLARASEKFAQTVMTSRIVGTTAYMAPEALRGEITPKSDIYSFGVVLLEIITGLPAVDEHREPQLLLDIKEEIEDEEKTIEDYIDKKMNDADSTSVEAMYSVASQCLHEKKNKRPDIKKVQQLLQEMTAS
As to the kind of experiment: IRAK-4 activity inhibition assay (Caliper). In kind it is biochemical. To be noted: 3.5 nM IRAK4, 37 μM ATP, 1.5 μM Peptide 8. The method, boiled down:
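Caliper mobility-shift assay: 3.5 nM IRAK4 preincubated 10 min with compound (10-point series, duplicates), then 1.5 μM peptide 8 and 37 μM ATP added in HEPES pH 7.5 with Mg2+/Mn2+ and DTT, 40 min at 28°C before EDTA stop. Percent inhibition from substrate conversion relative to DMSO and no-enzyme controls.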

Where [2] appears, read: Homo sapiens, 5 hours, read-out: TNFα production IC50.
[3] abbreviates: Homo sapiens, 16 hours, read-out: IL8 (16 h) production IC50.

The IC50 is the point on the concentration scale where inhibition reaches its midpoint.

Read-outs that look alike come from different tables or passages of the source.

Take `CCc1nc2c(N[C@H]3CC[C@H](N4CCOCC4)CC3)nc(Nc3cnn(C4CCOCC4)c3)nc2s1` [Compound I-9, 2-ethyl-5-N-[1-(oxan-4-yl)-1H-pyrazol-4-yl]-7-N—[trans-4-(morpholin-4-yl)cyclohexyl]-[1,3]thiazolo[5,4-d]pyrimidine-5,7-diamine]: the IC50 in assay [1] (setting [2]) was at most 250 nM; in assay [1] (setting [3]), at most 250 nM; at IRAK4 it was at most 1000 nM.

On to “2-methyl-N5-(1-methyl-1H-pyrazol-4-yl)-N7-((1r,4r)-4-morpholinocyclohexyl)thiazolo[5,4-d]pyrimidine-5,7-diamine [Compound I-24]”, for which the IC50 in assay [1] (5 hours, read-out: TNFα production IC50) is at least 500 nM; in assay [1] (16 hours, read-out: IL8 (16 h) production IC50), 250 to 500 nM; on IRAK4, at most 1000 nM.

Consider `CCc1nc2c(N[C@H]3CC[C@H](N4CCOCC4)CC3)nc(Nc3cnn(C)c3)nc2s1` [Compound I-7, 2-ethyl-N5-(1-methyl-1H-pyrazol-4-yl)-N7-((1r,4r)-4-morpholinocyclohexyl)-thiazolo[5,4-d]pyrimidine-5,7-diamine], for which the IC50 is at most 250 nM in assay [1] (setting [2]), at most 250 nM in assay [1] (setting [3]) and at most 1000 nM against IRAK4.
